Data taken from PMC8376734, “RNAi-mediated gene knockdown of progesterone 5β-reductases in Digitalis lanata reduces 5β-cardenolide content” (Plant Cell Reports, 2021).

Key:
rDlP5βR2 = system: T1, rDlP5βR2; assay: NADPH consumption at […] nm, spectrophotometric; type: biochemical, Digitalis lanata; conditions: 0.2 mM NADPH, 40 °C, substrate 0.01-1.6 mM
T1 construct: gene P5βR2; recombinant in E. coli SoluBL21, pDEST17 vector, His-tagged, IMAC purified; cloned with primers deduced from D. purpurea P5βR2

rDlP5βR1 = biological target: T2, rDlP5βR1 (Digitalis lanata, UniProt Q6PQJ9); assay: NADPH consumption at […] nm, spectrophotometric; type: biochemical; conditions: 0.2 mM NADPH, 40 °C, substrate 0.01-1.6 mM
T2 construct: recombinant in E. coli, pQE30 vector (Herl et al. 2006), His-tagged, IMAC purified
T2 sequence (Q6PQJ9 whole entry): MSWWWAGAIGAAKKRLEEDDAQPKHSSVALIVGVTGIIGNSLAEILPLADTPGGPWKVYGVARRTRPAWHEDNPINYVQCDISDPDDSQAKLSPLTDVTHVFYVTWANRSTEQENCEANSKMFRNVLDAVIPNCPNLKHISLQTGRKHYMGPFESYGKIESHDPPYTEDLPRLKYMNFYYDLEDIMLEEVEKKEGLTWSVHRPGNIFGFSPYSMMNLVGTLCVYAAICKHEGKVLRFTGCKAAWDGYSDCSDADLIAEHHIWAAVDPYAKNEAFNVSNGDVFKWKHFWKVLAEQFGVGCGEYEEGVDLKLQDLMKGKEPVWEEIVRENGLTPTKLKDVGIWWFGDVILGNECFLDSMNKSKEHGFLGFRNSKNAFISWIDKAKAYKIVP

| Structure (SMILES) | Km (rDlP5βR2) [µM] | Km (rDlP5βR1) [µM] |
| --- | --- | --- |
| C=CC(C)=O [methyl vinyl ketone] | 210 | 270 |
| CC(=O)[C@H]1CC[C@H]2[C@@H]3CCC4=CC(=O)CC[C@]4(C)[C@H]3CC[C@]12C [progesterone] | 230 |  |
